Drawing on patent US11401286B2 (Tetra Discovery Partners, LLC, priority 2012, dated 2022), this text covers IC50 for 37 compounds.

Where a name gives a salt, the structure may show the parent alone. Where only a bound is given, the exact number is not on record here.

The test deals with PDE4D7 (Homo sapiens (Human), UniProt Q08499). The note with it: read-out: PDE4D7 IC50; PDE4D7 without asterisk.
Sequence of PDE4D7 (Q08499 other isoform, or with tags, fused parts or gaps): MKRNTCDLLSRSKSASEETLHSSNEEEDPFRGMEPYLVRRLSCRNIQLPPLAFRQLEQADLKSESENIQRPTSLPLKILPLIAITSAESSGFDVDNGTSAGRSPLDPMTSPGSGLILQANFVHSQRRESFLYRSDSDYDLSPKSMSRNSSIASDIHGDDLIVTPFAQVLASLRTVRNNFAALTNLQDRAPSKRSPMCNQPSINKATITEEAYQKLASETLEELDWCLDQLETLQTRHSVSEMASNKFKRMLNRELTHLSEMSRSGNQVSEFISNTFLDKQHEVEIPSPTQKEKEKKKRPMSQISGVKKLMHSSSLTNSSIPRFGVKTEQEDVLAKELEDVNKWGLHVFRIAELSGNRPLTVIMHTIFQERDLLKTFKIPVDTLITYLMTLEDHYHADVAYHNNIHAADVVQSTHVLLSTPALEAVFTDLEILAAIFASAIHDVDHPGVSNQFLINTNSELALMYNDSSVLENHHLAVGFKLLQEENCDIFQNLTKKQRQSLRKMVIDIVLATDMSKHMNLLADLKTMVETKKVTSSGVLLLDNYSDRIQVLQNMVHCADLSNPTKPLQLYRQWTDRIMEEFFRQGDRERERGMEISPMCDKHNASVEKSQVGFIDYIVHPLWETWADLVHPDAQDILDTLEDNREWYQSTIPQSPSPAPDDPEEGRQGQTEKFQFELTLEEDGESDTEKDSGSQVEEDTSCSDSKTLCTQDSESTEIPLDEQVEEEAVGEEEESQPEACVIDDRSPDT
For `Cc1cc(Nc2cc(-c3cccc(Cl)c3)nc3c2CCC3)ccc1CC#N` [Example 109, 2-(4-((2-(3-Chlorophenyl)-6,7-dihydro-5H-cyclopenta[b]pyridin-4-yl)amino)-2-methylphenyl)acetonitrile hydrochloride], the IC50 was over 1000 nM. The result for `NC(=O)Cc1ccc(Nc2cc(-c3ccc[nH]3)nc3c2CCC3)cc1` [Example 133, 2-(4-((2-(1H-Pyrrol-2-yl)-6,7-dihydro-5H-cyclopenta[b]pyridin-4-yl)amino)phenyl)acetamide hydrochloride] reads over 1000 nM; that for `NC(=O)Cc1ccc(Nc2cc(S(=O)(=O)C3CCCC3)nc3c2CCC3)cc1` [Example 259, 2-(4-((2-(Cyclopentylsulfonyl)-6,7-dihydro-5H-cyclopenta[b]pyridin-4-yl)amino)phenyl)acetamide], over 1000 nM; that for `OCCc1ccc(Cc2cc(-c3cccc(Cl)c3)nc(C(F)(F)F)c2)cc1` [Example 143, 2-(4-((2-(3-Chlorophenyl)-6-(trifluoromethyl)pyridin-4-yl)methyl)phenyl)ethanol], over 1000 nM. `O=C(O)Cc1ccc(Oc2nc(-c3cccc(Cl)c3)nc(C3CC3)n2)cc1` [Example 43, 2-(4-((4-(3-chlorophenyl)-6-cyclopropyl-1,3,5-triazin-2-yl)oxy)phenyl)acetic acid]: the IC50 was over 1000 nM. As to `CC(=O)Cc1ccc(Nc2nc(-c3cccc(Cl)c3)nc3c2CCC3)cc1` [Example 164, 1-(4-((2-(3-Chlorophenyl)-6,7-dihydro-5H-cyclopenta[d]pyrimidin-4-yl)amino)phenyl)propan-2-one], the IC50 is over 1000 nM.

As for `NC(=O)Cc1ccc(Nc2nc(-c3cccc(Cl)c3)nc3c2SCCC3)cc1` [Example 271, 2-(4-((2-(3-chlorophenyl)-7,8-dihydro-6H-thiopyrano[3,2-d]pyrimidin-4-yl)amino)phenyl)acetamide], the IC50 was under 1000 nM. The result for `CCc1c(C)nc(-c2ccc(Cl)s2)nc1NCc1ccc(B(O)O)cc1` [Example 311, [4-[[[2-(5-Chloro-2-thienyl)-5-ethyl-6-methyl-pyrimidin-4-yl]amino]methyl]phenyl]boronic acid] reads over 1000 nM; that for `O=C(O)Cc1ccc(Cc2cc(C(F)(F)F)nc(OC3CCCC3)n2)cc1` [Example 200, 2-(4-((2-(Cyclopentyloxy)-6-(trifluoromethyl)pyrimidin-4-yl)methyl)phenyl)acetic acid], over 1000 nM; that for `CCc1cc(Cc2ccc(Cn3cc(Cl)cn3)cc2)nc(-c2cccc(Cl)c2)n1` [Example 190, 4-(4-((4-Chloro-1H-pyrazol-1-yl)methyl)benzyl)-2-(3-chlorophenyl)-6-ethylpyrimidine], under 1000 nM. With `NC(=O)Cc1ccc(Nc2cc(-c3cncc(Cl)c3)nc3c2CCC3)cc1` [Example 134, 2-(4-((2-(5-Chloropyridin-3-yl)-6,7-dihydro-5H-cyclopenta[b]pyridin-4-yl)amino)phenyl)acetamide hydrochloride], the IC50 was over 1000 nM. On to `CCc1c(C)nc(-c2ccc(Cl)s2)nc1Nc1ccc(Cn2cccn2)cc1` [Example 299, 2-(5-Chloro-2-thienyl)-5-ethyl-6-methyl-N-[4-(pyrazol-1-ylmethyl)phenyl]pyrimidin-4-amine], for which the IC50 was over 1000 nM. As to `NC(=O)Cc1ccc(Nc2nc(C3CCCC3)nc3c2S(=O)(=O)CCC3)cc1` [Example 286, 2-(4-((2-cyclopentyl-5,5-dioxido-7,8-dihydro-6H-thiopyrano[3,2-d]pyrimidin-4-yl)amino)phenyl)acetamide], the IC50 was under 1000 nM. As for `NC(=O)Cc1ccc(Nc2cc(-c3cc(Cl)cc(Cl)c3)nc3c2CCC3)cc1` [Example 157, 2-(4-((2-(3,5-Dichlorophenyl)-6,7-dihydro-5H-cyclopenta[b]pyridin-4-yl)amino)phenyl)acetamide hydrochloride], the IC50 is over 1000 nM.

For the compound `OCc1ccc(Nc2cc(-c3cccc(Cl)c3)nc3c2CCC3)cc1` [Example 88, (4-((2-(3-Chlorophenyl)-6,7-dihydro-5H-cyclopenta[b]pyridin-4-yl)amino)phenyl)methanol], the IC50 is over 1000 nM. In the case of `CCc1cc(Cc2ccc(CC(=O)NCCO)cc2)nc(-c2cccc(Cl)c2)n1` [Example 195, 2-(4-((2-(3-chlorophenyl)-6-ethylpyrimidin-4-yl)methyl)phenyl)-N-(2-hydroxyethyl)acetamide] it was under 1000 nM; in that of `OCCc1ccc(Cc2cc(C(F)(F)F)nc(C3CCCC3)n2)cc1` [Example 231, 2-(4-((2-Cyclopentyl-6-(trifluoromethyl)pyrimidin-4-yl)methyl)phenyl)ethanol], over 1000 nM; in that of `CC(C)c1nc(Nc2ccc(C(=O)O)cc2)nc(-c2ccc(Cl)s2)n1` [Example 29, 4-(4-(5-chlorothiophen-2-yl)-6-isopropyl-1,3,5-triazin-2-ylamino)benzoic acid], under 1000 nM.

In the case of `OCCc1ccc(Nc2cc(-c3cccc(Cl)c3)nc3c2CCC3)cc1F` [Example 113, 2-(4-((2-(3-Chlorophenyl)-6,7-dihydro-5H-cyclopenta[b]pyridin-4-yl)amino)-2-fluorophenyl)ethanol hydrochloride], the IC50 is over 1000 nM. On to `CCc1cc(Cc2ccc(CC(=O)OC)cc2)nc(C2CCCC2)n1` [Example 223, Methyl 2-(4-((2-cyclopentyl-6-ethylpyrimidin-4-yl)methyl)phenyl)acetate], for which the IC50 was over 1000 nM. `NS(=O)(=O)Cc1ccc(Nc2nc(-c3cccc(Cl)c3)nc3c2CCC3)cc1` [Example 180, (4-((2-(3-Chlorophenyl)-6,7-dihydro-5H-cyclopenta[d]pyrimidin-4-yl)amino)phenyl)methanesulfonamide]: the IC50 is over 1000 nM. With `NC(=O)Cc1ccc(Nc2cc(C(F)(F)F)nc(OC3CCCC3)n2)cc1` [Example 198, 2-(4-((2-(Cyclopentyloxy)-6-(trifluoromethyl)pyrimidin-4-yl)amino)phenyl)acetamide], the IC50 was over 1000 nM.

Consider `CCc1nc(Nc2ccc(CCO)cc2)nc(-c2cccc(Cl)c2)n1` [Example 58, 2-(4-(4-(3-chlorophenyl)-6-ethyl-1,3,5-triazin-2-ylamino)phenyl)ethanol], for which the IC50 was under 1000 nM.

Turning to `Cc1cccc(-c2cc(Nc3ccc(CCO)cc3)c3c(n2)CCC3)c1` [Example 160, 2-(4-((2-(m-Tolyl)-6,7-dihydro-5H-cyclopenta[b]pyridin-4-yl)amino)phenyl)ethanol hydrochloride], the IC50 is over 1000 nM.

Take `O=C(O)Cc1ccc(Nc2nc(-c3ccc(Cl)s3)nc3c2CCC3)cc1` [Example 9, 2-[4-[[2-(5-Chloro-2-thienyl)-6,7-dihydro-5H-cyclopenta[d]pyrimidin-4-yl]amino]phenyl]acetic acid]: the IC50 is over 1000 nM. For `OCC(O)c1ccc(Nc2nc(-c3cccc(Cl)c3)nc3c2CCC3)cc1` (stereo not shown) [Example 175, 1-(4-((2-(3-Chlorophenyl)-6,7-dihydro-5H-cyclopenta[d]pyrimidin-4-yl)amino)phenyl)ethane-1,2-diol], the IC50 was over 1000 nM. For the compound `NC(=O)Cc1ccc(Nc2nc(-c3cccc(Cl)c3)nc3c2CCCC3)cc1` [Example 234, 2-(4-((2-(3-Chlorophenyl)-5,6,7,8-tetrahydroquinazolin-4-yl)amino)phenyl)acetamide], the IC50 was under 1000 nM. For `C[C@H](O)Cc1ccc(Nc2cc(-c3cccc(Cl)c3)nc3c2CCC3)cc1` [Example 107, (S)-1-(4-((2-(3-Chlorophenyl)-6,7-dihydro-5H-cyclopenta[b]pyridin-4-yl)amino)phenyl)propan-2-ol], the IC50 was over 1000 nM.

`OC(Cc1ccc(Nc2nc(-c3cccc(Cl)c3)nc3c2CCC3)cc1)C(F)(F)F` (stereo not shown) [Example 176, 3-(4-((2-(3-Chlorophenyl)-6,7-dihydro-5H-cyclopenta[d]pyrimidin-4-yl)amino)phenyl)-1,1,1-trifluoropropan-2-ol]: the IC50 was over 1000 nM. Consider `NC(=O)Cc1ccc(Nc2cc(-c3cccc(Cl)c3)nc3c2CCC3)nc1` [Example 94, 2-(6-((2-(3-Chlorophenyl)-6,7-dihydro-5H-cyclopenta[b]pyridin-4-yl)amino)pyridin-3-yl)acetamide hydrochloride], for which the IC50 was over 1000 nM. `OCCc1ccc(Nc2cc(-c3cc(Cl)ccc3Cl)nc3c2CCC3)cc1` [Example 156, 2-(4-((2-(2,5-Dichlorophenyl)-6,7-dihydro-5H-cyclopenta[b]pyridin-4-yl)amino)phenyl)ethanol hydrochloride]: the IC50 was over 1000 nM. `NC(=O)Cc1ccc(Nc2cc(-c3cccc(Cl)c3)nc3c2CCC3)cc1F` [Example 112, 2-(4-((2-(3-Chlorophenyl)-6,7-dihydro-5H-cyclopenta[b]pyridin-4-yl)amino)-2-fluorophenyl)acetamide hydrochloride]: the IC50 is over 1000 nM. Consider `O=C(O)Cc1ccc(Nc2nc(-c3cccc(Cl)c3)nc3c2CCC3)cc1` [Example 10, 2-[4-[[2-(3-Chlorophenyl)-6,7-dihydro-5H-cyclopenta[d]pyrimidin-4-yl]amino]phenyl]acetic acid], for which the half-inhibitory concentration (IC50) is over 1000 nM. Regarding `NC(=O)Cc1ccc(Cc2cc(-c3cccc(Cl)c3)nc3c2CCC3)cc1` [Example 125, 2-(4-((2-(3-Chlorophenyl)-6,7-dihydro-5H-cyclopenta[b]pyridin-4-yl)methyl)phenyl)acetamide hydrochloride], the IC50 is over 1000 nM. The result for `NC(=O)Cc1ccc(Cc2cc(-c3cccc(Cl)c3)nc(C(F)(F)F)c2)cc1` [Example 144, 2-(4-((2-(3-Chlorophenyl)-6-(trifluoromethyl)pyridin-4-yl)methyl)phenyl)acetamide] reads over 1000 nM. Take `COC(=O)Cc1cccc(Nc2cc(-c3cccc(Cl)c3)nc3c2CCC3)c1` [Example 100, Methyl 2-(3-((2-(3-chlorophenyl)-6,7-dihydro-5H-cyclopenta[b]pyridin-4-yl)amino)phenyl)acetate hydrochloride]: the IC50 is over 1000 nM.

For `OCCc1ccc(Nc2nc(-c3cccc(Cl)c3)nc3c2SCC3)cc1` [Example 279, 2-(4-((2-(3-Chlorophenyl)-6,7-dihydrothieno[3,2-d]pyrimidin-4-yl)amino)phenyl)ethanol], the IC50 is under 1000 nM.

By IC50 is commonly meant the midpoint of a concentration-inhibition curve.
